Holding throughout (assay type): in vivo, mouse
One experiment relates to lean C57BL/6 mice. Nature of the experiment: 18-day dose-finding study of food intake in lean mice. As for the experimental part: C57BL/6 mice matched for weight and age (14-week-old, N = 24) were administered via subcutaneous injection at 9 am daily for 18 days, vehicle control or G108 diluted in sterile HPLC water. Ascending doses of either 5 nmol/kg, 10 nmol/kg or 20 nmol/kg G018 were administered. All mice had ad libitum access to RM1 diet (Special Diet Services, UK) and water. Food intake and body weights were recorded daily.
(§1) Food intake was measured daily using a dedicated weighing scale and topped up accordingly. Body weight was recorded at 9 am daily or every 48 h using the same weighing scale. Body composition was measured using an EchoMRI analyser at various timepoints during chronic studies. Body composition measurements were taken on the same time of day to reduce intra-animal variability. Animals were placed in a transparent cylindrical Perspex tube and both ends secured with Perspex clips. The tubes containing the animal was then carefully placed into the MRI machine (EchoMRI −100H analyser, EchoMRI). Each scan lasted approximately 90 s where lean mass and fat mass were recorded in grams. Following the scan, the mice were removed from the Perspex tube and returned to their respective cages.

A further experiment has as its system Gcgr^Δliver mice. The experiment in a line: Chronic study in hepatic-specific glucagon receptor knockout mice. The settings on record: 5 nmol/kg s.c. daily, 14 days, n = 7-8/group. On the procedure:
Age-matched (12-week-old) Gcgr^flox/flox:Alb-Cre + (Gcgr^Δliver) and Gcgr^flox/flox:Alb-Cre- (control) mice were subcutaneously administered daily with either 5 nmol/kg G108 or vehicle control (HPLC water) for 14 days (N = 7–8/group). All mice were single-housed and had ad libitum access to water and a standard (20 kcal%) protein diet (diet D11112201, Table S2). Food intake and body weight were measured daily prior to administration of peptide each day. EchoMRI analysis was carried out at baseline and day 14. Tail venesection was carried out 4-h post-dose on day 14. Blood samples were immediately transferred on ice, centrifuged at 2800 × g for 10 min prior to plasma total amino acid analysis.
Food intake was measured daily using a dedicated weighing scale and topped up accordingly. Body weight was recorded at 9 am daily or every 48 h using the same weighing scale. Body composition was measured using an EchoMRI analyser at various timepoints during chronic studies. […] Each scan lasted approximately 90 s where lean mass and fat mass were recorded in grams. […]
Plasma total amino acids were measured using fluorometric-based ELISA kits as described (MAK002, Sigma-Aldrich, Ab65347, Abcam). Plasma FGF21 was measured using a fluorescent based ELISA kit (ab229382, Abcam). Plasma triglyceride, cholesterol and leptin were measured using ELISA kits (ab65336, ab65390, ab199082, Abcam). […]

Experiment [1] deals with diet-induced obese (DIO) C57BL/6 mice. The experiment in a line: Chronic low-dose (7.5 nmol/kg) G108 study in DIO mice on SP or HP diet. The settings on record: 7.5 nmol/kg s.c. daily.
Text: Lean 10-week-old C57BL/6 mice (N = 27) were provided ad libitum a 60 kcal% high fat diet (diet D12492, Table S2) for 12 weeks prior to the start of the study. The cohort of mice were individually housed and divided into three treatment groups, based on treatment and diet allocation: Vehicle/High fat, Standard protein diet (SP) (N = 9), 7.5 nmol/kg G108/SP diet (N = 9) and 7.5 nmol/kg G108/High fat, High protein diet (HP) (N = 9). The high fat, standard protein diet (SP diet) (D08091803) and high fat, high protein diet (HP diet) (D08091801) are detailed in Table S2. All mice had ad libitum access to water and their allocated diets. Mice were subcutaneously administered with their respective treatments at 9 am each day for 27 days. Food intake, water intake and body weight were measured using the same weighing scale each morning prior to vehicle or G108 administration. EchoMRI was carried out at baseline, day 14 and day 25. Tail venesection was carried out on day 13 of the study immediately pre-treatment. 40–50 μL of blood was collected and immediately transferred on ice, centrifuged at 2800 × g for 10 min prior to analysis for total and individual plasma amino acids. A glucose tolerance test was carried out on day 15 of the study following a 5 h fast as described below. Forelimb grip strength testing was performed at baseline and day 25 of the study. After 20 days, all groups were placed into metabolic cages, single housed for 72 h, as described below. After 72 h, all groups were removed from the metabolic cages and returned to their home cages. Following a 4 h fast on day 27 all mice were culled, with the following tissues dissected and snap frozen in liquid nitrogen prior to storage at −80°C: gastrocnemius, quadriceps, brown adipose tissue (BAT) and liver. Terminal blood was also collected and transferred on ice immediately for centrifugation as previously described and storage at −80°C.
as §1
For glucose tolerance tests, following a 5 h fast and administration of peptide or vehicle treatment, mice were administered with glucose by intraperitoneal injection at a dose of 2 g/kg body weight. Tail vein blood samples were taken at baseline, 20, 40, 60 and 90 min and glucose measured (mmol/L) using a handheld GlucoRx monitor (GlucoRx, UK).
To measure energy expenditure, DIO mice were placed into a Comprehensive Laboratory Animal Monitoring System (CLAMS, Columbus instruments, Columbus, US). Measurement of oxygen consumption and carbon dioxide production was taken at 20 min intervals. Food intake was also measured electronically without the need to remove food. Each cohort of mice were placed into the CLAMS system with daily weighing of body weight prior to administration of the allocated treatment at 9 am. Following administration of treatment, mice were placed back into the metabolic cages with ad libitum access to their allocated diet. For studies with the low amino acid (LAA) diet in metabolic cages, animals were not removed from the metabolic cages until the end of the experiment and had ad libitum access to either standard protein or low amino acid diets. Feed efficiency was calculated as mg body weight change per kJ consumed. […]

Molecules are shown by their SMILES. Starred links: 1 amine or outer side, 2 acyl side, 3 side chain; linkers in the order of their positions; H or OH if unused. Non-standard residues stand in square brackets, D forms with d. Residues, ends and D or L forms follow the SMILES beside them. Groups on a side chain read outwards from the residue. *: point of attachment. C18 diacid = O=C(O)CCCCCCCCCCCCCCCCC(=O)*; γGlu = O=C(O)[C@H](CCC(=O)[*:2])N[*:1]; Aib = CC(C)(N)C(=O)O

As to `CC[C@H](C)[C@H](NC(=O)[C@H](Cc1ccccc1)NC(=O)[C@H](CCC(=O)O)NC(=O)[C@H](CCC(N)=O)NC(=O)[C@H](C)NC(=O)[C@H](CCCNC(=N)N)NC(=O)[C@H](CCCCN)NC(=O)[C@H](C)NC(=O)[C@H](CC(=O)O)NC(=O)[C@H](CC(C)C)NC(=O)[C@H](Cc1ccc(O)cc1)NC(=O)[C@H](CCCNC(=N)N)NC(=O)[C@H](CO)NC(=O)[C@H](Cc1ccc(O)cc1)NC(=O)[C@H](CC(=O)O)NC(=O)[C@H](CO)NC(=O)[C@@H](NC(=O)[C@H](Cc1ccccc1)NC(=O)[C@@H](NC(=O)CNC(=O)[C@H](Cc1c[nH]cn1)NC(=O)C(C)(C)NC(=O)[C@@H](N)Cc1c[nH]cn1)[C@@H](C)O)[C@@H](C)O)C(=O)N[C@@H](CCC(=O)O)C(=O)N[C@@H](Cc1c[nH]c2ccccc12)C(=O)N[C@@H](CC(C)C)C(=O)N[C@@H](CC(C)C)C(=O)N[C@@H](CCC(N)=O)C(=O)N[C@@H](CO)C(=O)N[C@@H](Cc1c[nH]cn1)C(=O)N[C@@H](Cc1c[nH]cn1)C(=O)N[C@@H](CCC(N)=O)C(=O)N[C@@H](Cc1c[nH]cn1)C(=O)N[C@@H](Cc1c[nH]cn1)C(=O)N1CCC[C@H]1C(=O)N[C@@H](CO)C(=O)N1CCC[C@H]1C(=O)N1CCC[C@H]1C(=O)N1CCC[C@H]1C(=O)N[C@@H](CCCCNC(=O)[C@H](CC(N)=O)NC(=O)CC[C@H](NC(=O)CCCCCCCCCCCCCCCCC(=O)O)C(=O)O)C(N)=O` [Peptide G108] (H-H[Aib]HGTFTSDYSRYLDAKRAQEFIEWLLQSHHQHHPSPPPK([Asn-γGlu-C18 diacid])-NH2; N-terminus and C-terminus assumed), the food intake entry in the experiment on lean C57BL/6 mice (5 nmol/kg s.c. daily) was “no effect on food intake”; in the experiment with lean C57BL/6 mice (10 nmol/kg s.c. daily, 18 days, n = 6/group) it was “sustained reduction in food intake”; in the experiment with lean C57BL/6 mice (20 nmol/kg s.c. daily, 18 days, n = 6/group) it was “sustained reduction in food intake”; in experiment [1] (27 days), “did not affect food intake”. The “effects on body weight, lean mass and plasma amino acids in mice lacking the hepatic GCGR” value in the experiment with Gcgr^Δliver mice is “completely refractory”. Also, in experiment [1] (27 days, HP diet (40 kcal% protein) versus SP diet, n = 9/group), the “body weight on high protein (HP) diet” value is “sufficient to prevent chronic G108-mediated weight loss”. Moreover, the “lean mass and grip strength on HP diet” value in experiment [1] (HP diet, less pronounced over the course of the study) is “blunted the reduction in lean mass and grip strength”. In experiment [1] (after 20 days, CLAMS, SP and HP diets, n = 7-8/group), the “energy expenditure (EE) in metabolic cages” value is “increased EE on a standard protein (SP), but not HP, diet”. Besides, in experiment [1] (day 13, SP diet, GC/MS, n = 5/group), the “individual plasma amino acids” value is “reduced the plasma abundance of most amino acids”. For the same compound, the plasma total cholesterol entry in experiment [1] (day 14, both SP and HP diets, n = 9/group) is “improvement in plasma cholesterol”. Also, the plasma total triglyceride entry in experiment [1] (day 14, n = 9/group) is “no change in plasma triglycerides”. The “glucose tolerance (intraperitoneal glucose tolerance test, 2 g/kg)” value in experiment [1] (day 15, SP and HP diets, n = 9/group) is “remarkably efficient at improving glucose tolerance”. Moreover, in experiment [1] (days 14 and 25, SP diet, prevented by HP diet), the “fat mass on standard protein (SP) diet” value is listed as “marked reduction in fat mass”. Further, the “induction of hepatic amino acid catabolic pathways on HP diet” value in experiment [1] (liver qPCR, n = 5-6/group) is reported as “not prevented by the HP diet”. In addition, the “hepatic lipid content (oil red O staining)” value in experiment [1] (terminal (day 27), both SP and HP diets) is reported as “highly effective at clearing liver fat”.
